According to patent publication US20100022562A1, “Use of Plant Growth Regulators to Reduce Abscisic Acid Related Plant Leaf Yellowing” (priority 2008, published 2010):

Key:
Type in all cases: in vivo
Pansy plants [1] = test: Pansy shelf life under drought (daily wilting rating, sales index)
Procedure, shortened: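 Greenhouse pansies were treated with 20 mL solution each, 3 mL foliar plus 17 mL root drench, then watering was withheld. Wilting was rated daily on a 1–4 scale, and shelf life was the day before the rating reached 2.5. Yellow leaves were counted 3 days after treatment.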

Pansy plants [2] = test: Pansy yellow leaf number (leaf yellowing)
Method: All studies were conducted in the greenhouse at the research farm of Valent BioSciences Corporation (Long Grove, Ill.). Pansy plants were obtained either from local retailers as mature plants, or plugs from wholesale nurseries. Plugs of Pansy plants were transplanted into an 18-cell flat filled with Promix BX (available from Premier Horticulture Inc. Quakertown, Pa.) and grown for about 30 days prior to treatment. During growing periods, plants received daily irrigation and weekly fertilizer (1 g/L all purpose fertilizer 20-20-20, The Scotts Company, Marysville, Ohio).
(§1) Uniform plants were selected for the study. Prior to chemical treatment, plants were saturated with water and then drained for about two hours. A total of 20 mL chemical solution, which is equivalent to about 10% of the cell volume, was applied to each plant with 3 mL solution foliar applied to canopy and 17 mL solution drench applied to root zone. Unless specified, watering of plants was stopped after chemical treatment.
After chemical treatment, plants were arranged in a randomized complete block experimental design. The plants were rated daily for the extent of wilting on a scale from 1 (no wilting) to 4 (complete wilting) to generated a sales index rating. A rating of 2.5 was the point at which a plant was determined to be unmarketable and the previous day was recorded as the shelf life of that plant in days. […] Leaf transpiration rate was measured after treatment using a LI-1600 Steady State Porometer (LI-Cor, Lincoln, Nebr.). The transpiration rate of each treatment was calculated as the percentage of that of control at each day to reduce day-to-day variation caused by changes of environmental condition such as light intensity, humidity, and temperature.

Pansy plants [3] = test: Pansy leaf transpiration rate (LI-1600 Steady State Porometer); conditions: Matrix Premium Rose
Method: as §1
After chemical treatment, plants were arranged in a randomized complete block experimental design. The plants were rated daily for the extent of wilting on a scale from 1 (no wilting) to 4 (complete wilting) to generated a sales index rating. A rating of 2.5 was the point at which a plant was determined to be unmarketable and the previous day was recorded as the shelf life of that plant in days. Yellow leaf number was counted at 3 days after chemical treatment. Leaf transpiration rate was measured after treatment using a LI-1600 Steady State Porometer (LI-Cor, Lincoln, Nebr.). The transpiration rate of each treatment was calculated as the percentage of that of control at each day to reduce day-to-day variation caused by changes of environmental condition such as light intensity, humidity, and temperature.

`c1ccc(CNc2ncnc3nc[nH]c23)cc1` [BA, 6-benzylaminopurine] was tested, and the Shelf life (Pansy plants [1]; 0.2 mg BA, Matrix Yellow, Table 5) was 3.8 days, the Shelf life (Pansy plants [1]; 0.2 mg BA, no water, Whispers White, Table 15) was 2.5 days and the Shelf life (Pansy plants [1]; 2 mg BA at 0 d, Matrix Premium Rose, Table 11) was 3.7 days. It also gave a Shelf life (Pansy plants [1]; 2 mg BA at +1 d, Matrix Premium Rose, Table 11) of 4.0 days, a Shelf life (Pansy plants [1]; 2 mg BA at −1 d (1 day prior to ABA treatment day), Matrix Premium Rose, Table 11) of 3.8 days and a Shelf life (Pansy plants [1]; 2 mg BA, Delta Premium Pure White, Table 23) of 4.0 days. The Shelf life (Pansy plants [1]; 2 mg BA, Matrix Yellow, Table 5) was 3.8 days, the Shelf life (Pansy plants [1]; 2 mg BA, no water, Matrix Premium Rose, Table 13) was 4.0 days and the Shelf life (Pansy plants [1]; 2 mg BA, no water, Whispers White, Table 15) was 2.7 days. The Shelf life (Pansy plants [1]; 2 mg, Clear Sky Yellow, drought, Table 8) was 3.8 days, the Shelf life (Pansy plants [1]; 2 mg, Crown Azure Blue, drought, Table 9) was 3.3 days and the Shelf life (Pansy plants [1]; 2 mg, Matrix Yellow, drought, Table 7) was 3.5 days. It also gave a Shelf life (Pansy plants [1]; 2 mg, Matrix Yellow, drought, Table 10) of 2.3 days, a Yellow leaf number (Pansy plants [2]; 0.2 mg BA, Matrix Yellow, 3 d after treatment, Table 5) of 1.8 and a Yellow leaf number (Pansy plants [2]; 0.2 mg BA, no water, Whispers White, 3 d after treatment, Table 15) of 7.8. The Yellow leaf number (Pansy plants [2]; 2 mg BA at 0 d, Matrix Premium Rose, 3 d after treatment, Table 11) was 0.8, the Yellow leaf number (Pansy plants [2]; 2 mg BA at +1 d, Matrix Premium Rose, 3 d after treatment, Table 11) was 0.8 and the Yellow leaf number (Pansy plants [2]; 2 mg BA at −1 d, Matrix Premium Rose, 3 d after treatment, Table 11) was 0.7. For the same compound, the Yellow leaf number (Pansy plants [2]; 2 mg BA, Delta Premium Pure White, 3 days after treatment, Table 23) was 1.3, the Yellow leaf number (Pansy plants [2]; 2 mg BA, Delta Premium Pure White, 7 days after treatment, Table 23) was 6.2 and the Yellow leaf number (Pansy plants [2]; 2 mg BA, Matrix Yellow, 3 d after treatment, Table 5) was 1.5. The Yellow leaf number (Pansy plants [2]; 2 mg BA, no water, Matrix Premium Rose, 3 d after treatment, Table 13) was 0.8, the Yellow leaf number (Pansy plants [2]; 2 mg BA, no water, Whispers White, 3 d after treatment, Table 15) was 6.3 and the Yellow leaf number (Pansy plants [2]; 2 mg, Clear Sky Yellow, drought, 3 d after treatment, Table 8) was 0.0. It also gave a Yellow leaf number (Pansy plants [2]; 2 mg, Crown Azure Blue, drought, 3 d after treatment, Table 9) of 0.3, a Yellow leaf number (Pansy plants [2]; 2 mg, Matrix Yellow, drought, 3 d after treatment, Table 7) of 7.8 and a Yellow leaf number (Pansy plants [2]; 2 mg, Matrix Yellow, drought, 3 d after treatment, Table 10) of 7.2. For the same compound, the “Transpiration rate (% of control)” value (Pansy plants [3]; 0.2 mg BA, no water, day 1 after treatment, Table 16) was 101 % of control, the “Transpiration rate (% of control)” value (Pansy plants [3]; 0.2 mg BA, no water, day 2 after treatment, Table 16) was 29 % of control and the “Transpiration rate (% of control)” value (Pansy plants [3]; 0.2 mg BA, no water, day 3 after treatment, Table 16) was 7 % of control. The “Transpiration rate (% of control)” value (Pansy plants [3]; 0.2 mg BA, watered, day 1 after treatment, Table 16) was 102 % of control, the “Transpiration rate (% of control)” value (Pansy plants [3]; 0.2 mg BA, watered, day 2 after treatment, Table 16) was 98 % of control and the “Transpiration rate (% of control)” value (Pansy plants [3]; 0.2 mg BA, watered, day 3 after treatment, Table 16) was 100 % of control. The “Transpiration rate (% of control)” value (Pansy plants [3]; 0.2 mg BA, watered, day 4 after treatment, Table 16) was 101 % of control, the “Transpiration rate (% of control)” value (Pansy plants [3]; 0.2 mg BA, watered, day 5 after treatment, Table 16) was 100 % of control and the “Transpiration rate (% of control)” value (Pansy plants [3]; 0.2 mg BA, watered, day 7 after treatment, Table 16) was 99 % of control. The “Transpiration rate (% of control)” value (Pansy plants [3]; 0.2 mg BA, watered, day 10 after treatment, Table 16) was 100 % of control, the “Transpiration rate (% of control)” value (Pansy plants [3]; 2 mg BA at 0 d, day 1 after ABA treatment, Table 12) was 105 % of control and the “Transpiration rate (% of control)” value (Pansy plants [3]; 2 mg BA at 0 d, day 2 after ABA treatment, Table 12) was 97 % of control. For the same compound, the “Transpiration rate (% of control)” value (Pansy plants [3]; 2 mg BA at 0 d, day 3 after ABA treatment, Table 12) was 98 % of control, the “Transpiration rate (% of control)” value (Pansy plants [3]; 2 mg BA at +1 d, day 1 after ABA treatment, Table 12) was 96 % of control and the “Transpiration rate (% of control)” value (Pansy plants [3]; 2 mg BA at +1 d, day 2 after ABA treatment, Table 12) was 101 % of control. The “Transpiration rate (% of control)” value (Pansy plants [3]; 2 mg BA at +1 d, day 3 after ABA treatment, Table 12) was 107 % of control, the “Transpiration rate (% of control)” value (Pansy plants [3]; 2 mg BA at −1 d, day 1 after ABA treatment, Table 12) was 115 % of control and the “Transpiration rate (% of control)” value (Pansy plants [3]; 2 mg BA at −1 d, day 2 after ABA treatment, Table 12) was 104 % of control. The “Transpiration rate (% of control)” value (Pansy plants [3]; 2 mg BA at −1 d, day 3 after ABA treatment, Table 12) was 109 % of control, the “Transpiration rate (% of control)” value (Pansy plants [3]; 2 mg BA, no water, day 1 after treatment, Table 14) was 108 % of control and the “Transpiration rate (% of control)” value (Pansy plants [3]; 2 mg BA, no water, day 1 after treatment, Table 16) was 101 % of control. For the same compound, the “Transpiration rate (% of control)” value (Pansy plants [3]; 2 mg BA, no water, day 2 after treatment, Table 14) was 71 % of control, the “Transpiration rate (% of control)” value (Pansy plants [3]; 2 mg BA, no water, day 2 after treatment, Table 16) was 34 % of control and the “Transpiration rate (% of control)” value (Pansy plants [3]; 2 mg BA, no water, day 3 after treatment, Table 14) was 54 % of control. For the same compound, the “Transpiration rate (% of control)” value (Pansy plants [3]; 2 mg BA, no water, day 3 after treatment, Table 16) was 14 % of control, the “Transpiration rate (% of control)” value (Pansy plants [3]; 2 mg BA, no water, day 4 after treatment, Table 14) was 35 % of control and the “Transpiration rate (% of control)” value (Pansy plants [3]; 2 mg BA, watered, day 1 after treatment, Table 14) was 109 % of control. For the same compound, the “Transpiration rate (% of control)” value (Pansy plants [3]; 2 mg BA, watered, day 1 after treatment, Table 16) was 99 % of control, the “Transpiration rate (% of control)” value (Pansy plants [3]; 2 mg BA, watered, day 2 after treatment, Table 14) was 102 % of control and the “Transpiration rate (% of control)” value (Pansy plants [3]; 2 mg BA, watered, day 2 after treatment, Table 16) was 97 % of control. The “Transpiration rate (% of control)” value (Pansy plants [3]; 2 mg BA, watered, day 3 after treatment, Table 14) was 101 % of control, the “Transpiration rate (% of control)” value (Pansy plants [3]; 2 mg BA, watered, day 3 after treatment, Table 16) was 98 % of control and the “Transpiration rate (% of control)” value (Pansy plants [3]; 2 mg BA, watered, day 4 after treatment, Table 14) was 101 % of control. The “Transpiration rate (% of control)” value (Pansy plants [3]; 2 mg BA, watered, day 4 after treatment, Table 16) was 97 % of control, the “Transpiration rate (% of control)” value (Pansy plants [3]; 2 mg BA, watered, day 5 after treatment, Table 14) was 99 % of control and the “Transpiration rate (% of control)” value (Pansy plants [3]; 2 mg BA, watered, day 5 after treatment, Table 16) was 101 % of control. The “Transpiration rate (% of control)” value (Pansy plants [3]; 2 mg BA, watered, day 7 after treatment, Table 14) was 98 % of control, the “Transpiration rate (% of control)” value (Pansy plants [3]; 2 mg BA, watered, day 7 after treatment, Table 16) was 97 % of control and the “Transpiration rate (% of control)” value (Pansy plants [3]; 2 mg BA, watered, day 10 after treatment, Table 14) was 101 % of control. The “Transpiration rate (% of control)” value (Pansy plants [3]; 2 mg BA, watered, day 10 after treatment, Table 16) was 102 % of control and the “Transpiration rate (% of control)” value (Pansy plants [3]; 2 mg BA, watered, day 15 after treatment, Table 14) was 98 % of control.
